Experimental findings from PMC5324278, “Novel synthetic analogues of avian β-defensin-12: the role of charge, hydrophobicity, and disulfide bridges in biological functions” (BMC Microbiology, 2017) are described below.

Bridge positions count the residues as written; N and C are the ends. Square brackets hold non-standard residues; d marks the D form. Ends that are not written are not given here. Abu = CC[C@H](N)C(=O)O Bounds are passed on as bounds.

The subject of one data set is CCR2 transfected CHO-K1 cells. The data set can be described thus: Chemotaxis assay, 48-well microchemotaxis chamber. The format is cell-based, avian. As to conditions: Fig. 9; n = 5.
Take “GPHSANHVRGLARVGNANPGLYLAKYAFIPVILAAKPLSPTPTKT [AvBD-12A1]”: the “chemotactic activity for CCR2-CHO-K1 cells (in words)” value (“chemotactic activity … (in words)” for short) was “minimal chemotactic activity”. For the substance “GPRSANHKRGLARVGNANPGKYLAKYSFRPVILSSKPLSPTPTKT [AvBD-12A3]”, the “chemotactic activity … (in words)” value was “minimal chemotactic activity”.

“GPDSC^1NHDRGLC^2RVGNC^3NPGEYLAKYC^4FEPVILC^5C^6VRNRWA (bicyclic or more) [AvBD-12/6, group 3 hybrid peptide: backbone of AvBD-12 with amino acid residues of AvBD-6]”: the “chemotactic activity … (in words)” value was “retained the chemotactic function”. Turning to “GPDS[Abu]NHDRGL[Abu]RVGNCNPGEYLAKY[Abu]FEPVIL[Abu]CKPLSPTPTKT (disulfide 17-35) [AvBD-12A5]”, the “chemotactic activity … (in words)” value is reported as “lost their chemotactic activity”. Still for that read-out and setting: in the case of “GPDS[Abu]NHDRGL[Abu]RVGN[Abu]NPGEYLAKY[Abu]FEPVIL[Abu][Abu]KPLSPTPTKT [AvBD-12A6]” it was “lost their chemotactic activity”.

System in a further data set: not given
Assay: not given
Conditions: not given
“GPRSANHKRGLARVGNANPGKYLAKYSFRPVILSSKPLSPTPTKT [AvBD-12A3]” registered a chemotactic activity, % of wild type AvBD-12 above 50%.
